Where two headings read alike, the source gives them in different places.
Target: T1, STAT6 (Homo sapiens, UniProt P42226)
T1 construct: endogenous in cells; host or cells: MOLM-16, KU-812, SKNO1, MB231, L1236
T1 sequence (P42226 1-847): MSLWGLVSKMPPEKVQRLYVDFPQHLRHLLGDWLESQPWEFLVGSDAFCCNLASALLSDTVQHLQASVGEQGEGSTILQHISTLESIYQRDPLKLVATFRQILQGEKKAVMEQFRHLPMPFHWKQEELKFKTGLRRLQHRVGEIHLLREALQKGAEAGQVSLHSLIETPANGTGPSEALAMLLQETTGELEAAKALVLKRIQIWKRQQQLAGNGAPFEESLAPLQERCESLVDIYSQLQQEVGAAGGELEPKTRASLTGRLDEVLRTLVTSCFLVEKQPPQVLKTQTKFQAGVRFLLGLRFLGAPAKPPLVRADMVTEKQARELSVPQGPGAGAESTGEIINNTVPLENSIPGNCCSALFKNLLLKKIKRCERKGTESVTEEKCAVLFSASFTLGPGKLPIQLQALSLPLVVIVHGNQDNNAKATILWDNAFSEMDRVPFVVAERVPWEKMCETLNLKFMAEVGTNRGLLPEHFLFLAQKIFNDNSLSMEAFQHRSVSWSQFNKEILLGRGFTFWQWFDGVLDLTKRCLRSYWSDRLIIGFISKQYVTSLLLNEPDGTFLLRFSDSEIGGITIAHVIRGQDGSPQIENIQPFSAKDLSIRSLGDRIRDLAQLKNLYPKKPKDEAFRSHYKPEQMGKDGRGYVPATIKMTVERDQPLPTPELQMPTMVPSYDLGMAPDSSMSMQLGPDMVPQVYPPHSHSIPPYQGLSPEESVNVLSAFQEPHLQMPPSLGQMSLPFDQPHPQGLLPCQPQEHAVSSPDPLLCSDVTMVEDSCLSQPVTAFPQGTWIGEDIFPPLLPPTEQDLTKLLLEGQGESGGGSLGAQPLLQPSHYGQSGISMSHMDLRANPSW
Assay: Immunoblotting (Western blot) analysis of STAT6 degradation efficiency of degraders in treated cells
Assay type: cell-based
Method in brief: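 About 1 million cells per point, grown in 10% FBS medium at 37 °C/5% CO2, were exposed to compound at the indicated concentrations and times, then lysed in RIPA buffer with protease and phosphatase inhibitors. Equal protein (20-40 μg) was resolved by SDS-PAGE, blotted to PVDF, and probed with anti-STAT5, anti-STAT6 and anti-GAPDH antibodies.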

[1] = MOLM-16 cells, class symbols, read-out: DC50 S6 MOLM-16
[2] = L1236 cells, read-out: DC50 S6 L1236

Row | DC50 (MOLM-16 cells, numeric bound, read-out: DC50 S6 MOLM-16) | SMILES | DC50 [1] | DC50 [2]
1 | > 0.3 µM | CC(C)(C)[C@H](NC(=O)c1cc2cc(C(F)(F)P(=O)(O)O)ccc2s1)C(=O)N1C[C@H](OCCCCCC#Cc2cccc3c2CN(C2CCC(=O)NC2=O)C3=O)C[C@H]1C(=O)N1CCC[C@H](c2ccccc2)C1 (stereo partly drawn) [Compound 602, ((2-(((2S)-1-((2S,4R)-4-((7-(2-(2,6-dioxopiperidin-3-yl)-1-oxoisoindolin-4-yl)hept-6-yn-1-yl)oxy)-2-((R)-3-phenylpiperidine-1-carbonyl)pyrrolidin-1-yl)-3,3-dimethyl-1-oxobutan-2-yl)carbamoyl)benzo[b]thiophen-5-yl)difluoromethyl)phosphonic acid] |  | 
2 |  | CC(C)(C)[C@H](NC(=O)c1cc2cc(C(F)(F)P(=O)(O)O)ccc2s1)C(=O)N1Cc2cc(OCC(=O)NCCCCCC#Cc3cccc4c3C(=O)N(C3CCC(=O)NC3=O)C4=O)ccc2C[C@H]1C(=O)N1CCC[C@H](c2ccccc2)C1 (stereo partly drawn) [Compound 557, ((2-(((2S)-1-((3S)-7-(2-((7-(2-(2,6-dioxopiperidin-3-yl)-1,3-dioxoisoindolin-4-yl)hept-6-yn-1-yl)amino)-2-oxoethoxy)-3-((R)-3-phenylpiperidine-1-carbonyl)-3,4-dihydroisoquinolin-2(1H)-yl)-3,3-dimethyl-1-oxobutan-2-yl)carbamoyl)benzo[b]thiophen-5-yl)difluoromethyl)phosphonic acid] | > 10 µM | 
3 |  | CC(C)(C)[C@H](NC(=O)c1cc2cc(C(F)(F)P(=O)(O)O)ccc2s1)C(=O)N1C[C@@H](OCC(=O)NCCCCCC#Cc2ccc3c(c2)C(=O)N(C2CCC(=O)NC2=O)C3=O)C[C@H]1C(=O)N1CCO[C@H](c2ccccc2)C1 (stereo partly drawn) [Compound 488, ((2-(((2S)-1-((2S,4S)-4-(2-((7-(2-(2,6-dioxopiperidin-3-yl)-1,3-dioxoisoindolin-5-yl)hept-6-yn-1-yl)amino)-2-oxoethoxy)-2-((R)-2-phenylmorpholine-4-carbonyl)pyrrolidin-1-yl)-3,3-dimethyl-1-oxobutan-2-yl)carbamoyl)benzo[b]thiophen-5-yl)difluoromethyl)phosphonic acid] | > 10 µM | 
4 |  | Cc1ncsc1-c1ccc([C@H](C)NC(=O)[C@@H]2C[C@@H](O)CN2C(=O)[C@@H](NC(=O)CCCCCNC(=O)CC(=O)N2CCN(C(=O)[C@@H](NC(=O)c3cc4cc(C(F)(F)P(=O)(O)O)ccc4s3)C(C)(C)C)[C@H](C(=O)N3CCC[C@H](c4ccccc4)C3)C2)C(C)(C)C)cc1 [Compound 456, (difluoro(2-(((S)-1-((S)-4-(3-((6-(((S)-1-((2,4R)-4-hydroxy-2-(((S)-1-(4-(4-methylthiazol-5-yl)phenyl)ethyl)carbamoyl)pyrrolidin-1-yl)-3,3-dimethyl-1-oxobutan-2-yl)amino)-6-oxohexyl)amino)-3-oxopropanoyl)-2-((R)-3-phenylpiperidine-1-carbonyl)piperazin-1-yl)-3,3-dimethyl-1-oxobutan-2-yl)carbamoyl)benzo[b]thiophen-5-yl)methyl)phosphonic acid] | > 10 µM | > 10 µM
5 |  | Cc1ncsc1-c1ccc([C@H](C)NC(=O)[C@@H]2C[C@@H](O)CN2C(=O)[C@@H](NC(=O)CCCCCCCCNC(=O)CO[C@H]2C[C@@H](C(=O)N3CCC[C@H](c4ccccc4)C3)N(C(=O)[C@@H](NC(=O)c3cc4cc(C(F)(F)P(=O)(O)O)ccc4s3)C(C)(C)C)C2)C(C)(C)C)cc1 [Compound 441, (difluoro(2-(((S)-1-((2S,4S)-4-(2-((9-(((S)-1-((2S,4R)-4-hydroxy-2-(((S)-1-(4-(4-methylthiazol-5-yl)phenyl)ethyl)carbamoyl)pyrrolidin-1-yl)-3,3-dimethyl-1-oxobutan-2-yl)amino)-9-oxononyl)amino)-2-oxoethoxy)-2-((R)-3-phenylpiperidine-1-carbonyl)pyrrolidin-1-yl)-3,3-dimethyl-1-oxobutan-2-yl)carbamoyl)benzo[b]thiophen-5-yl)methyl)phosphonic acid] | > 10 µM | > 10 µM
6 |  | CC(C)(C)[C@H](NC(=O)c1cc2cc(C(F)(F)P(=O)(O)O)ccc2s1)C(=O)N1Cc2cc(OCC(=O)NCCCCCCCCC#Cc3cccc4c3C(=O)N(C3CCC(=O)NC3=O)C4=O)ccc2C[C@H]1C(=O)N1CCC[C@H](c2ccccc2)C1 (stereo partly drawn) [Compound 559, ((2-(((2S)-1-((3S)-7-(2-((10-(2-(2,6-dioxopiperidin-3-yl)-1,3-dioxoisoindolin-4-yl)dec-9-yn-1-yl)amino)-2-oxoethoxy)-3-((R)-3-phenylpiperidine-1-carbonyl)-3,4-dihydroisoquinolin-2(1H)-yl)-3,3-dimethyl-1-oxobutan-2-yl)carbamoyl)benzo[b]thiophen-5-yl)difluoromethyl)phosphonic acid] | > 10 µM | 
7 |  | Cc1ncsc1-c1ccc([C@H](C)NC(=O)[C@@H]2C[C@@H](O)CN2C(=O)[C@@H](NC(=O)CCCCCCCCNC(=O)CC(=O)N2CCN(C(=O)[C@@H](NC(=O)c3cc4cc(C(F)(F)P(=O)(O)O)ccc4s3)C(C)(C)C)[C@H](C(=O)N3CCO[C@H](c4ccccc4)C3)C2)C(C)(C)C)cc1 [Compound 450, (difluoro(2-(((S)-1-((S)-4-(3-((9-(((S)-1-((2S,4R)-4-hydroxy-2-(((S)-1-(4-(4-methylthiazol-5-yl)phenyl)ethyl)carbamoyl)pyrrolidin-1-yl)-3,3-dimethyl-1-oxobutan-2-yl)amino)-9-oxononyl)amino)-3-oxopropanoyl)-2-((R)-2-phenylmorpholine-4-carbonyl)piperazin-1-yl)-3,3-dimethyl-1-oxobutan-2-yl)carbamoyl)benzo[b]thiophen-5-yl)methyl)phosphonic acid] | > 10 µM | > 10 µM
8 |  | CC(C)(C)[C@H](NC(=O)c1cc2cc(C(F)(F)P(=O)(O)O)ccc2s1)C(=O)N1CCN(C(=O)CC(=O)NCCCCCC#Cc2cccc3c2C(=O)N(C2CCC(=O)NC2=O)C3=O)C[C@H]1C(=O)N1CCO[C@H](c2ccccc2)C1 (stereo partly drawn) [Compound 515, ((2-(((2S)-1-((2S)-4-(3-((7-(2-(2,6-dioxopiperidin-3-yl)-1,3-dioxoisoindolin-4-yl)hept-6-yn-1-yl)amino)-3-oxopropanoyl)-2-((R)-2-phenylmorpholine-4-carbonyl)piperazin-1-yl)-3,3-dimethyl-1-oxobutan-2-yl)carbamoyl)benzo[b]thiophen-5-yl)difluoromethyl)phosphonic acid] | > 10 µM | 
9 |  | CC(C)(C)[C@H](NC(=O)c1cc2cc(C(F)(F)P(=O)(O)O)ccc2s1)C(=O)N1C[C@@H](NC(=O)CCCC#Cc2ccc3c(c2)CN(C2CCC(=O)NC2=O)C3=O)C[C@H]1C(=O)N1CCO[C@H](c2ccccc2)C1 (stereo partly drawn) [Compound 588, ((2-(((2S)-1-((2S,4S)-4-(6-(2-(2,6-dioxopiperidin-3-yl)-1-oxoisoindolin-5-yl)hex-5-ynamido)-2-((R)-2-phenylmorpholine-4-carbonyl)pyrrolidin-1-yl)-3,3-dimethyl-1-oxobutan-2-yl)carbamoyl)benzo[b]thiophen-5-yl)difluoromethyl)phosphonic acid] | > 10 µM | > 10 µM
10 |  | CC(C)(C)[C@H](NC(=O)c1cc2cc(C(F)(F)P(=O)(O)O)ccc2s1)C(=O)N1C[C@@H](OCC(=O)NCCCCC#Cc2cccc3c2C(=O)N(C2CCC(=O)NC2=O)C3=O)C[C@H]1C(=O)N1CCO[C@H](c2ccccc2)C1 (stereo partly drawn) [Compound 485, ((2-(((2S)-1-((2S,4S)-4-(2-((6-(2-(2,6-dioxopiperidin-3-yl)-1,3-dioxoisoindolin-4-yl)hex-5-yn-1-yl)amino)-2-oxoethoxy)-2-((R)-2-phenylmorpholine-4-carbonyl)pyrrolidin-1-yl)-3,3-dimethyl-1-oxobutan-2-yl)carbamoyl)benzo[b]thiophen-5-yl)difluoromethyl)phosphonic acid] | > 10 µM | 
11 |  | Cc1ncsc1-c1ccc([C@H](C)NC(=O)[C@@H]2C[C@@H](O)CN2C(=O)[C@@H](NC(=O)CCCCCCCNC(=O)CO[C@H]2C[C@@H](C(=O)N3CCC[C@H](c4ccccc4)C3)N(C(=O)[C@@H](NC(=O)c3cc4cc(C(F)(F)P(=O)(O)O)ccc4s3)C(C)(C)C)C2)C(C)(C)C)cc1 [Compound 440, (difluoro(2-(((S)-1-((2S,4S)-4-(2-((8-(((S)-1-((2S,4R)-4-hydroxy-2-(((S)-1-(4-(4-methylthiazol-5-yl)phenyl)ethyl)carbamoyl)pyrrolidin-1-yl)-3,3-dimethyl-1-oxobutan-2-yl)amino)-8-oxooctyl)amino)-2-oxoethoxy)-2-((R)-3-phenylpiperidine-1-carbonyl)pyrrolidin-1-yl)-3,3-dimethyl-1-oxobutan-2-yl)carbamoyl)benzo[b]thiophen-5-yl)methyl)phosphonic acid] | > 10 µM | > 10 µM

Reference: patent US20230295197A1, “STAT5 and STAT6 Degraders and Uses Thereof” (REGENTS OF THE UNIVERSITY OF MICHICAN, priority 2022, published 2023)
